Test results reported in patent US20220098674A1, “METHODS AND COMPOSITIONS FOR SELECTING A CANCER TREATMENT IN A SUBJECT SUFFERING FROM CANCER” (INSERM (INSTITUT NATIONAL DE LA SANTÉ ET DR LA RECHERCH …, priority 2019, published 2022).

What was measured:
[1] = tested on: RCC4+pVHL, RCC4 and RCC4 siVDAC1 cells; assay: Sensitivity of RCC4 cell variants to sunitinib or 3BP treatment; format: cell-based
Method: RCC4/pVHL and 786-O/pVHL cells were grown in Dulbecco's Modified Eagle's Medium (DMEM) (Gibco-BRL) supplemented with 10% fetal bovine serum with penicillin G (50 U/ml) and streptomycin sulfate (50 μg/ml). ACHN and A498 RCC cell lines were purchased from the ATCC (Mar. 3, 2013). The RCC10 cell line was a kind gift from Dr. W. H. Kaelin (Dana-Farber Cancer Institute, Boston, Mass.). An INVIVO2 200 anaerobic workstation (Ruskinn Technology Biotrace International Plc) set at 1% oxygen, 94% nitrogen and 5% carbon dioxide was used for hypoxic conditions.
Cells (5000-10000) were plated on 60 mm dishes and incubated at 37° C., 5% CO2 for colony formation. After 10 days, colonies were fixed with 10% (v/v) methanol for 15 min and stained with 5% Giemsa (Sigma) for 30 min for colony visualization.
Sunitinib, a vascular endothelial growth factor receptor inhibitor is widely used for patients with metastatic RCC. RCC4+pVHL−, RCC4− and RCC4 siVDAC1− cells were treated with 1.0 and 1.5 μM of sunitinib (Data not shown). […] As RCC4 cells with VDAC1-ΔC present a higher glycolysis than RCC4+pVHL cells, we used 3 Bromopyruvate (3BP), an halogenated analogue of pyruvic acid that enters cells like a lactate via monocarboxylic acid transporters, to block glycolysis.

RCC4 siVDAC1 cells = assay: Invasion assay (aggressiveness) of RCC4 siVDAC1 cells treated with 3BP; format: cell-based
Method: The invasion assay was performed using cell culture inserts with 8.0 μm pore transparent PET membrane coated with 10 μg/mL fibronectin. Inserts were coated with 2 μg/μL of Matrigel and incubated for 3 h at 37° C. in a CO2 incubator. Briefly, overnight serum-starved cells (8×10^4 cells) were seeded into the top chamber in medium without FBS, while medium with 10% FBS was present in the bottom chamber. The cells were incubated for 24 h. Media and remaining cells were removed from the top chamber with a cotton swab and washed twice with PBS. The bottom chamber was aspirated and washed twice with PBS. Inserts were fixed with 4% PFA. Invasiveness was assayed in triplicate for each condition, in at least three independent experiments. Cells that invaded the Matrigel and migrated through the filter and adhered to the lower surface were stained for 10 min with 0.5% crystal violet in 25% methanol. Inserts were rinsed in distilled water until no additional stain leached and were air-dried overnight. Crystal violet was extracted from the invading cells by adding 600 μl of 0.1M sodium citrate in 10% acetic acid. Absorbance was measured spectrophotometrically at 585 nm using Spectronic GENESYS 5 (Milton Roy, Rochester, N.Y.). Microarray experiments Microarray experiments were already described (22). […]

RCC4 cells = assay: Cell death in RCC4 cells, siRNA to VDAC1 or AEP combined with 3BP; format: cell-based; conditions: 3BP combined with siRNA to VDAC1 or AEP
From the text: In patients who progressively lose the primary cilium, this loss generated increased metabolism and greater resistance to cell death, promoting tumor growth. Since this loss was related to the presence of the cleaved form of VDAC1, the strategy would therefore be to prevent the cleavage of VDAC1 to restore the presence of the primary cilium. […] Indeed, we characterized a signature related to EMT that can explain the aggressive phenotype of the tumors of these patients. However, remodeling of metabolism was changed. Although cancer metabolism is a hallmark of cancer, it has been shown that aberrant metabolism supports EMT (47,48). […] It is therefore possible to envisage specific treatment for these groups: Temsirolimus (50) or Everolimus, specific inhibitors of mTOR (51) that block proliferation, in combination with small molecule inhibitors that prevent EMT such as EW-7197 or IN-1130, through a block in TGFβ1 and 2, have already been used in metastatic breast and lung cancer (52). By maintaining only one metabolic pathway, cancer cells with a GLI1+/IFT20+ signature offer a metabolic vulnerability that it would be wise to exploit. […] Finally, combination of an immune checkpoint inhibitor such as atezolizumab or nivolumab (an anti-PDL1 or PD1 inhibitor) alone or plus 3-bromopyruvate could be evaluated on PC+ patients with such reduced overall survival (FIG. 1). […]

ccRCC = assay: Survival (PFS, OS) of sunitinib-treated ccRCC patients by GLI1/IFT20 primary cilium signature, clinical trial SUVEGIL; format: in vivo, human; conditions: ccRCC patients treated with sunitinib, no VDAC1-ΔC
Method: FIG. 3. Patients with primary cilium signature present a higher immunogenicity compared to no primary cilium signature and a better response to immunotherapy. (A) Progression free-survival (PFS) and (B) Overall survival (OS) for the primary cilium signature was calculated from patients of the TCGA cohort C treated with sunitinib using the GLI1/IFT20 signature. Statistical significance (p-value) is indicated. The median survival is also indicated.
The Student's t-test was used to compare continuous variables and chi-square test, or Fisher's exact test (when the conditions for use of the χ2-test were not fulfilled), were used for categorical variables. To guarantee the independence of primary cilium as a prognostic factor, the multivariate analysis was performed using Cox regression adjusted to the stage and age. DFS was defined as the time from surgery to the appearance of metastasis. OS was defined as the time between surgery and the date of death from any cause, censoring those alive at last follow-up. The Kaplan-Meier method was used to produce survival curves and analyses of censored data were performed using Cox models. All analyses were performed using R software, version 3.2.2 (Vienna, Austria, https://www.r-project.org/).
We thus checked if PC+ patients with a GLI1+/IFT20+ signature and no VDAC1-ΔC are resistant or sensitive to sunitinib.

| SMILES | sensitivity to 3BP ([1]; cells presenting no VDAC1-ΔC or less VDAC1, 10 and 25 μM) | aggressiveness (invasion) compared to control (RCC4 siVDAC1 cells) | cell death (RCC4 cells) | sensitivity to sunitinib ([1]; RCC4+pVHL, RCC4 and RCC4 siVDAC1 cells (all these cells), 1.0 and 1.5 μM) | sensitivity to sunitinib ([1]; RCC4 cells expressing no VDAC1-ΔC) | sensitivity to sunitinib, relative ([1]; cells with VDAC1-ΔC versus RCC4+pVHL cells or cells with no VDAC1-ΔC or less VDAC1, 1.0 and 1.5 μM) | survival (PFS and OS) of PC+ patients versus PC− groups (ccRCC) |
| --- | --- | --- | --- | --- | --- | --- | --- |
| O=C(O)C(=O)CBr [3BP, 3-bromopyruvate] | highly sensitive | strongly decreased | increased cell death |  |  |  |  |
| CCN(CC)CCNC(=O)c1c(C)[nH]c(/C=C2\C(=O)Nc3ccc(F)cc32)c1C [sunitinib, N-[2-(diethylamino)ethyl]-5-{[(3Z)-5-fluoro-2-oxo-2,3-dihydro-1H-indol-3-ylidene]methyl}-2,4-dimethyl-1H-pyrrole-3-carboxamide] |  |  |  | sensitive | less sensitive | slightly more sensitive | lower survival |
